Data reported in PubChem BioAssay AID1329 (NMMLSC, 2008).
Activity calls are given as the source filed them. How the calls were made is not given here.

What follows are compounds tested against Induced myeloid leukemia cell differentiation protein Mcl-1 (Homo sapiens) (UniProt Q07820) (assay: Mcl-1/Bim interaction regulators – biochemical, bead-based flow cytometry, multiplexed, human, dose response (AID 1329)). Details: Bim peptide-Mcl-1 binding, MCF.
Chain of Induced myeloid leukemia cell differentiation protein Mcl-1 (Homo sapiens) (Q07820 whole entry, looked up): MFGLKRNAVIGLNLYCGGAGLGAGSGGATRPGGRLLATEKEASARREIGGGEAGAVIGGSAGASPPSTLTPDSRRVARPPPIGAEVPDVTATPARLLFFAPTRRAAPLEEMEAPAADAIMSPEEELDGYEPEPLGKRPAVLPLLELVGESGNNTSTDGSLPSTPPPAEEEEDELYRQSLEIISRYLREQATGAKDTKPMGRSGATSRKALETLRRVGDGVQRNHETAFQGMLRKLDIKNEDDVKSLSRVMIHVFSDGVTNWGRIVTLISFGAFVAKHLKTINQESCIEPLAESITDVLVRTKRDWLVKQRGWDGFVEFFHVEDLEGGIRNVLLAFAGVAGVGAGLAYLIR

| SMILES | percent span |
| --- | --- |
| COc1cccc2c(SCC(=O)N/N=C/c3ccc(O)c(O)c3)cc(C)nc12 | inactive |
| O=c1[nH]c(SCc2nc3ccccc3c(=O)n2-c2ccccc2C(F)(F)F)nc2ccccc12 | inactive |
| COc1ccc(OC)c(NC(=O)COC(=O)c2cc3c(s2)CCC3)c1 | inactive |
| CCNC(=S)Nc1ccc(OCC)cc1 | inactive |
| COc1ccc(NC(=O)c2cc(-c3ccc(C)o3)nc3ccccc23)cc1OC | inactive |
| CC(C(=O)Nc1cc([N+](=O)[O-])ccc1Cl)N1CCN(c2ccc(O)cc2)CC1 (centres undefined) | inactive |
| Cc1cccc(/C=N/N(CCO)C2=NS(=O)(=O)c3ccccc32)c1 | inactive |
| Cc1ccc(N=C2NC(=O)/C(=C/C=C/c3ccco3)S2)cc1 | inactive |
| COc1cccc(/C=N/Nc2nn3cnnc3c3ccccc23)c1 | inactive |
| CCCOc1ccc(-c2c(C(=O)N/N=C/c3ccc(OC)cc3)nnn2-c2nonc2N)cc1 | inactive |
| CN=c1scc(C)n1/N=C/c1ccc(O)c(O)c1O | inactive |
| Cc1ccc(NC(=O)CSc2nc3ccccc3c(=O)n2CCCN2CCCCC2)cc1Cl | inactive |
| CC(=O)Nc1ccc(NC2=C(Cl)C(=O)c3ccccc3C2=O)cc1 | inactive |
| COc1ccc(OC)c(NC(=O)CCCN2C(=S)NC(C)(C)CC2C)c1 (centres undefined) | inactive |
| Cc1ccccc1-n1c(SCc2cccc(F)c2)nc2[nH]ncc2c1=O | inactive |
| Cc1nnc(NCc2n[nH]c(=O)c3ccccc23)c2ccccc12 | inactive |
| CN(C)c1ccc(C=C2C(=O)NC(=O)NC2=O)cc1[N+](=O)[O-] | inactive |
| COC(=O)c1sc2nc[nH]c(=O)c2c1C | inactive |
| COc1ccc(COC(=O)NNC(=O)c2ccccc2Cl)cc1 | inactive |
| COC(=O)C1C2c3ccccc3OC1(C)N=c1s/c(=C/c3cnn(C)c3C)c(=O)n12 (centres undefined) | inactive |
| COc1ccccc1Cn1nnc2c(=O)[nH]c(C3CCN(C(=O)c4ccc(C)cc4)CC3)nc21 | inactive |
| CCOC(=O)c1c(NC(=O)c2ccccc2N(C)S(=O)(=O)c2ccccc2)sc2c1CCCC2 | inactive |
| CC1=NN(c2ccc(C)cc2)C(=O)/C1=C\c1ccc(Br)s1 | inactive |
| O=C(COc1ccccc1)Nc1ccc2c(c1)Cc1cc(NC(=O)COc3ccccc3)ccc1-2 | inactive |
| O=C(Nc1ccc2nc(-c3ccco3)c(-c3ccco3)nc2c1)NC1CC1 | inactive |
| COc1ccc(C2(NC(C)=O)CCN(C(=O)c3ccco3)CC2)cc1 | inactive |

| SMILES | percent span |
| --- | --- |
| O=[N+]([O-])c1ccc(N/N=C/c2ccc(O)c(O)c2O)c(S(=O)(=O)N2CCOCC2)c1 | inactive |
| COc1ccc(C)cc1Nc1ccc(C(=O)O)cc1[N+](=O)[O-] | inactive |
| Cc1ccc(/C=C/C(=O)c2ccccc(=O)c2O)cc1C | inactive |
| CCCC(=O)OCCNc1cc(Sc2nccn2C)c2nonc2c1[N+](=O)[O-] | inactive |
| CCSc1nnc(NC(=O)c2c(-c3ccccc3Cl)noc2C)s1 | inactive |
| CS(=O)(=O)NN1C(=O)c2ccccc2NC1c1cccs1 (centres undefined) | inactive |
| Cc1ccc(C)c(NC(=O)C(=O)NCc2ccccn2)c1 | inactive |
| Fc1ccccc1-n1cc(-c2ccccc2)[nH]c1=S | inactive |
| CS(=O)(=O)NN1C(=O)c2ccccc2NC1c1ccccc1 (centres undefined) | inactive |
| CCOC(=O)C1=C(CP(=O)(c2ccccc2)c2ccccc2)NC(=O)NC1c1ccc(OC)cc1 (centres undefined) | inactive |
| COc1cc(/C=C2\SC(=S)NC2=O)ccc1OS(=O)(=O)c1ccccc1 | inactive |
| CC(C)Cc1cc(-c2ccco2)c(C#N)c(N)n1 | inactive |
| Cc1c(Cc2ccccc2)sc(N)c1C(N)=O | inactive |
| CCc1cccc(NC(=O)COc2ccccc2)c1 | inactive |
| COc1ccc(CCNC(=O)c2cc(-c3ccccn3)nc3c(Cl)cccc23)cc1OC | inactive |
| CCOc1ccc(NCc2ccccc2OCc2cccc(F)c2)cc1 | inactive |
| O=C(/C=C/c1ccc(-c2ccccc2)o1)c1ccccc1 | inactive |
| Cc1ccc(-c2cc(-c3ccc(Cl)cc3)c(C#N)c(N)n2)o1 | inactive |
| Cc1cc(-c2csc(N)n2)c(C)n1CCC(C)C | inactive |
| COc1ccc(-n2cc(-c3ccc(OC)c(OC)c3)[nH]c2=S)cc1 | inactive |
| Cc1cc(N)ccc1N1CCCC1 | inactive |
| CCCCOc1ccc(Cc2c(Cl)nc(SC)nc2N2CCOCC2)cc1 | inactive |
| O=C(CNC(=O)c1ccc(S(=O)(=O)N2CCCC2)cc1)N/N=C/c1ccc(Cl)cc1Cl | inactive |
| CC(C)C(=O)N1CCN(c2ccc([N+](=O)[O-])cc2Cl)CC1 | inactive |
| CCOC(=O)c1nn(-c2ccccc2)c(C#N)c1N | inactive |
| CCOc1ccc(-n2cc(-c3ccc(OC)c(OC)c3)[nH]c2=S)cc1 | inactive |

| SMILES | percent span |
| --- | --- |
| COc1ccc(-c2noc(COc3ccc4c(c3)OCO4)n2)cc1OC | inactive |
| CCOc1ccccc1CNc1ccc(O)cc1 | inactive |
| CCCC1(C(=O)OCC)NC(c2cc(OC)c(OC)c(OC)c2)C2C(=O)N(CC)C(=O)C21 (centres undefined) | inactive |
| O=C(CSc1ccc(-c2ccccc2)nn1)NCc1ccco1 | inactive |
| Cc1cc(C)nc(/N=c2/ssnc2Cl)c1 | inactive |
| O=C(NCCCN1CCN(CCCNC(=O)c2cc([N+](=O)[O-])ccc2Cl)CC1)c1cc([N+](=O)[O-])ccc1Cl | inactive |
| O=C1c2ccccc2-c2onc3ccc(NCc4ccco4)c1c23 | inactive |
| Cc1[nH]nc(SCC(=O)NCc2ccc(F)cc2)c1[N+](=O)[O-] | inactive |
| CN(CC(=O)O/N=C(\N)c1ccc([N+](=O)[O-])cc1)S(=O)(=O)c1ccccc1 | inactive |
| CCN(CC)c1ccc(Nc2nc(N3CCOCC3)c3ccccc3n2)cc1 | inactive |
| CCOc1cccc(CNc2ccc(O)cc2)c1OCc1ccccc1Cl | inactive |
| COc1ccccc1-n1c(-c2ccc(Cl)cc2)c[nH]c1=S | inactive |
| CC(C)(C)OC(=O)N1CCN(C(=O)[C@H](Cc2ccc(O)cc2)n2cc(CCO)nn2)CC1 | inactive |
| COc1ccc(C(=O)/C=C/c2cc(OC)c(O)c(OC)c2)c(F)c1 | inactive |
| Cc1ccc(C(NC(=O)C(C)C)c2cc([N+](=O)[O-])c3cccnc3c2O)cc1 (centres undefined) | inactive |
| S=C(NCCc1ccccc1)NCCc1ccccc1 | inactive |
| COc1ccc(C(=S)N2CCCCCC2)cc1 | inactive |
| Cc1ccc(C)n1-c1ccc(N2CCOCC2)cc1 | inactive |
| CCC(CC)C(=O)Nc1cccc(SC)c1 | inactive |
| COc1ccc(CN(CC(=O)NC2CCCC2)C(=O)CCC(=O)Nc2cc(C)on2)cc1 | inactive |
| O=C(OCc1cnc(Cl)s1)c1cccc(Cl)c1Cl | inactive |
| c1ccc(-c2nc(N3CCCCC3)nc3ccccc23)cc1 | inactive |
| Cc1cccc(N=C2NC(=O)/C(=C/C=C/c3ccco3)S2)c1C | inactive |
| CCOC(=O)CSC1=NC(=O)/C(=C/c2ccc(Br)cc2)S1 | inactive |
| COc1cccc(C(=O)/C=C/Nc2ccc(S(=O)(=O)Nc3onc(C)c3C)cc2)c1 | inactive |
| c1ccc(Nc2nc(-c3ccncc3)cs2)cc1 | inactive |

| SMILES | percent span |
| --- | --- |
| COC(=O)CCC(=O)Nc1sc(Cc2ccccc2)c(C)c1C(N)=O | inactive |
| COc1ccccc1NC1=C(NC(C)=O)C(=O)c2ccccc2C1=O | inactive |
| CN(C)C(=O)N1CCC(C(=O)NC2CCCCCCC2)CC1 | inactive |
| CCN(C(=O)COC(=O)c1cc(-c2ccc(C)o2)nc2ccccc12)C1CCS(=O)(=O)C1 (centres undefined) | inactive |
| C#CCOCCOCCOCCNc1nc(N2CCN(C(=O)[C@H](CCCCN)n3cc(CCCC)nn3)CC2)nc(N2CCN(C(=O)[C@H](Cc3ccc(O)cc3)n3cc(CCO)nn3)CC2)n1 | inactive |
| CCSc1ncnc2sc(C)c(C)c12 | inactive |
| CC(=O)NC1=C(NC2CCS(=O)(=O)C2)C(=O)c2ccccc2C1=O (centres undefined) | inactive |
| COc1cc(N=c2ssnc2Cl)cc(OC)c1OC | inactive |
| Cc1ccc(Nc2nc(-c3c(C)nc4ncccn34)cs2)cc1 | inactive |
| Cc1cccc(C(=O)N=c2c(C#N)cc3c(=O)n4cccc(C)c4nc3n2Cc2ccco2)c1 | inactive |
| CCN1C(=O)/C(=C\C=C2/C=CC=CN2CC)SC1=S | inactive |
| CNCc1ccccc1Sc1cc(O)ccc1O | inactive |
| Clc1nssc1=Nc1ccc(Br)cc1 | inactive |
| N#CC(C#N)=C1C=CC=CN1/C(=C\c1ccco1)C(=O)c1ccccc1 | inactive |
| O=C(c1ccccc1NS(=O)(=O)c1ccc(Br)s1)N1CCCC1 | inactive |
| COc1ccc2nc(NC(=O)c3ccc(-c4cccc([N+](=O)[O-])c4)o3)sc2c1 | inactive |
| OCCC1CN(Cc2nc3c(s2)CCCC3)CCN1Cc1ccsc1 (centres undefined) | inactive |
| C(=C\c1ccccc1)/CSc1nnc(-c2ccccn2)n1Cc1ccco1 | inactive |
| O=C1C(Cl)=C(Nc2ccccc2O)C(=O)N1c1ccccc1 | inactive |
| O=C1/C(=C/c2cccs2)Sc2ccccc21 | inactive |
| Cc1cc(C)cc(-n2c(C)nc3cc(C(=O)O)ccc32)c1 | inactive |
| COc1c(C)cc(Br)cc1C(=O)Nc1ccc(S(N)(=O)=O)cc1 | inactive |
| O=C(N/N=C/c1ccncc1)c1cccc(NC(=O)c2ccccc2Cl)c1 | inactive |
| CN(C)S(=O)(=O)N(CC(=O)Nc1ccccc1C(F)(F)F)c1ccccc1 | inactive |
| CCN(CC)c1ccc(NC(=O)c2ccccc2Br)cc1S(=O)(=O)Nc1ccccc1OC | inactive |
| Cc1cccc(Nc2nc(-c3ccncc3)cs2)c1 | inactive |
